# Laboratory results taken from patent US11857601B2, “Pharmaceutical composition for cancer treatment comprising fusion protein including IL-2 protein and CD80 protein and anticancer drug” (GI INNOVATION, INC., priority 2020, dated 2024).
# Key:
# 4T1 cells [1] = test: mGI-101 and Abemaciclib in 4T1 allotransplanted tumor model; assay type: in vivo, BALB/c mice; settings: 11 mice per group
# Method: 4T1 cells were purchased from ATCC (USA) and cultured in RPMI1640 medium (Gibco) containing 10% FBS (Gibco) and 1% antibiotic/antifungal agent (Gibco). The cultured cells were harvested using trypsin (Gibco) and then suspended in PBS. In order to establish an allotransplanted tumor model, 1×10^5 of 4T1 cells were subcutaneously injected into the back of BALB/c female mice (8-week-old).
# A certain period of time after cell inoculation of the tumor grafts of the mice, the tumor volume was measured for animals with no abnormalities in the health condition of the animals, and the mice were randomly selected and assigned, each group including 11 mice.
# The death of the mouse, the type of general symptoms, the date of onset, and the severity of symptoms were observed once a day during the test period, and recorded for each subject.
# The tumor volume before administration of each subject was set as the value measured at the time of grouping, and the anti-tumor efficacy was evaluated as compared with the vehicle control.
# All statistical calculations were performed using Prism 8.0 (Graph Pad Software Inc, USA). The comparison of tumor volume measurements was made through two-way analysis of variance followed by Tukey's multiple comparison test. A p value of less than 0.05 was considered significant.
# MC38 cells = test: mGI-101 and DMXAA in MC38 allotransplanted tumor model; assay type: in vivo, C57BL/6 mice; settings: day 60 after tumor injection; mGI-101 6 mg/kg i.p. BIW, DMXAA 450 μg I.T.; 5 mice per group
# Method: In order to establish an allotransplanted tumor model, 5×10^5 of MC38 cells were subcutaneously injected into C57BL/6 mice. The tumor grafts of the mice were identified to be a size of 100-200 mm^3 about day 10 after cell inoculation, and the mice were assigned, each group including 5 mice.
# The size of the MC38 solid cancer was measured three times a week during the observation period, and the major axis (maximum length, L) and minor axis (perpendicular width, W) of the tumor were measured using a caliper, and the tumor volume (TV) was calculated by substituting them into the following equation, and once the tumor size was no less than 2 cm, the mice were sacrificed. TV (mm^3)=(W^2×L)/2 [Equation 1]
# 4T1 cells [2] = test: mGI-101, anti-PD-L1 antibody and Docetaxel in 4T1 allotransplanted tumor model; assay type: in vivo, BALB/c mice
# From the text: This experiment was to evaluate the anticancer efficacy according to administration of the test substance mGI-101 alone or in combination with Docetaxel (Selleck Chemicals, cat. no. S1148) and the anti-PD-L1 antibody (BioXcell, cat. no. BE0101) in a tumor model allotransplanted with 4T1 cells (mouse breast cancer cells) into BALB/c mice.
# 4T1 cells were purchased from ATCC (USA) and cultured in RPMI1640 medium (Gibco) containing 10% FBS (Gibco) and 1% antibiotic/antifungal agent (Gibco). The cultured cells were harvested using trypsin (Gibco), and then a cell suspension was prepare with PBS and stored on ice until injected into mice. In order to establish an allotransplanted tumor model, after identifying the location of the second mammary fat pad from the upper right of the ventral region of BALB/c female mice (8-week-old), 4T1 cell line prepared inside the mammary fat pad was injected at 4×10^4 cells/40 μl/head.
# A certain period of time after cell inoculation of the tumor grafts of the mice, the tumor volume was measured for animals with no abnormalities in the health condition of the animals, and the subjects were selected so that the average of each group reached less than 70-100 mm^3, and the selected animals were assigned as evenly as possible based on tumor volume and body weight, each group including 10 animals.
# Docetaxel was dissolved in 100% DMSO, and then the volume was adjusted with 5% of DMSO, 30% of PEG300, 5% of Tween 80, and 60% of distilled water for injection (DMSO PEG300: Tween 80: distilled water for injection=5%: 30%: 5%: 60% (v:v:v:v)) and prepared.
# The Anti-PD-L1 antibody was prepared and administered using 1×PBS in consideration of dosage amount and volume. […]
# The tumor volume before administration of each subject was set as the value measured at the time of grouping, and the anti-tumor efficacy was evaluated as compared with the vehicle control. […]
# MDA-MB-231 cells = test: Cancer cell killing, GI-101 and Ribociclib, MDA-MB-231 with PBMCs; assay type: cell-based, human; settings: GI-101 100 nM, Ribociclib 913 nM, 24 hours, compared with co-culturing only cancer cells and PBMCs
# From the text: This experiment was to evaluate the effect of killing cancer cells by treating MDA-MB-231 cells (human breast cancer cells) with the test substance GI-101 alone or in combination with Ribociclib substance in an in vitro environment.
# (§1) MDA-MB-231 cells were purchased from the Korea cell line bank and cultured in RPMI1640 medium (Gibco) containing 10% FBS (Gibco) and 1% antibiotic/antifungal agent (Gibco). For use in cancer cell killing test, the cells were harvested using trypsin (Gibco), and then suspended in RPMI1640 medium, and then dead cells and debris were removed using Ficoll (GE Healthcare Life Sciences) solution. The cells suspended in RPMI1640 medium were carefully layered on ficoll solution. […]
# (§2) In order to identify the effect of killing the cells, a CytoTox Green reagent ([…]™ CytoTox Green, Satorius) that binds to the DNA of cells to be killed was prepared in 1 μl per 1 mL of RPMI1640 medium containing 5% human AB serum (Sigma). The prepared medium was used for dilution of the test substance, and the effect of killing the cells could be quantitatively identified by staining the cells to be killed when the test substance was co-cultured with cancer cell lines and PBMCs. […]
# HCT116 cells = test: Cancer cell killing, GI-101 and Pertuzumab, HCT116 with NK cells; assay type: cell-based, human; settings: GI-101 0.4-100 nM, Pertuzumab 16.9 nM, 24 hours
# From the text: This experiment was to evaluate the effect of killing cancer cells by treating HCT116 cells (human colon cancer cells) with the test substance GI-101 alone or in combination with Pertuzumab substance in an in vitro environment.
# as §1, with “HCT116 cells” for “MDA-MB-231 cells”, “in McCoy's 5A” for “in RPMI1640”, “medium (ATCC)” for “medium (Gibco)”
# as §2
# [3] = 4T1, end of the test, 10 animals per group
molecule,measurement,setting,value
"CCN1CCN(Cc2ccc(Nc3ncc(F)c(-c4cc(F)c5nc(C)n(C(C)C)c5c4)n3)nc2)CC1 [Abemaciclib, reference compound]",number of mice with tumor growth inhibition rate of 30% or more,4T1 cells [1],4 mice
same,number of mice with tumor growth inhibition rate of 50% or more,4T1 cells [1],1 mice
same,number of mice with tumor growth inhibition rate of 80% or more,4T1 cells [1],1 mice
"Cc1ccc2c(=O)c3cccc(CC(=O)O)c3oc2c1C [DMXAA, reference compound]",survival rate,MC38 cells,60%
CC(=O)O[C@@]12CO[C@@H]1C[C@H](O)[C@@]1(C)C(=O)[C@H](O)C3=C(C)[C@@H](OC(=O)[C@H](O)[C@@H](NC(=O)OC(C)(C)C)c4ccccc4)C[C@@](O)([C@@H](OC(=O)c4ccccc4)[C@H]21)C3(C)C [Docetaxel],number of mice with tumor growth inhibition rate of 30% or more,4T1 cells [2]; [3],5 mice
same,number of mice with tumor growth inhibition rate of 50% or more,4T1 cells [2]; [3],1 mice
same,anticancer effect (tumor size) compared with the control,"4T1 cells [2]; day 14, Docetaxel 15 mg/kg, mGI-101 3 mg/kg, aPD-L1 10 mg/kg i.p. QW",statistically significant anticancer effect
"CN(C)C(=O)c1cc2cnc(Nc3ccc(N4CCNCC4)cn3)nc2n1C1CCCC1 [Ribociclib, reference compound]",effect of killing cancer cells,MDA-MB-231 cells,excellent effect of killing cancer cells
Pertuzumab: Her2 inhibitor [reference compound],effect of killing cancer cells,HCT116 cells,effect of killing cancer cells was not shown
